Read-outs that look alike come from different tables or passages of the source.

Experiment [1] addresses T1, wild type GPR84 (Homo sapiens, UniProt Q9NQS5).
T1 construct: expressed in transfected cells
Put plainly: pThr263/pThr264 GPR84 phosphorylation assay (magnetic bead capture). The settings on record: for EC50: 5 min stimulation, read-out: pEC50 ± SEM, phosphorylation of Thr263 and Thr264 (converted). The experiment is classed as cell-based. As for the experimental part:
Flp-In™ TREx™ 293 cells engineered to express FLAG-GPR84-eYFP were seeded onto poly-D-lysine-coated clear 96-well plates at a density of 5 x 10^4 cells/well and grown overnight before treatment with 100 ng/ml doxycycline to induce receptor expression. After 24 h, cells were serum starved for 2 hours then stimulated with the indicated agonists, prepared in serum free media, for 5 min at 37 °C. After washing with ice-cold PBS, cells were lysed in 100 μl/well lysis buffer (150 mM NaCl, 50 mM Tris-HCl, 5 mM EDTA, 1% IGEPAL (Nonidet P-40), 0.5% deoxycholic acid, and 0.1% SDS; pH 7.4) supplemented with protease and phosphatase inhibitor cocktail on an orbital shaker for 1 hour at 4 °C. Lysates were cleared by centrifugation at 3700 × g for 20 min at 4 °C and 80 μl of supernatants transferred into 96-U-bottom-well assay plates (Greiner Bio-One). GFP-Trap® magnetic agarose beads (1 μl/well) were washed then diluted in lysis buffer to give a total volume of 20 μl of bead slurry per well before adding to supernatant. Assay plates were incubated on a microplate shaker at 700 rpm for 2 h at 4 °C then washed three times with 100 μl of PBS with 0.1% Tween-20 (PBS-T) under magnetic force using a handheld magnetic separation block (Milliplex, Millipore). After washing, anti-pThr263/pThr264 antiserum was diluted 1:1000 in PBS-T then 60 μl added to assay plate. The plates were then incubated overnight at 4 °C on a microplate shaker. After another wash cycle (3 x with PBS-T), anti-rabbit horseradish […] (HRP)-linked secondary antibody was added to PBS-T to a final dilution of 1:10,000 and incubated on a microplate shaker for 2 h at room temperature. After a further wash cycle, 100 μl of TMB substrate solution was added to each well and the plates were incubated for 15 min. The reaction was stopped by the addition of 100 μl of 0.3 M sulphuric acid. The assay plates were then placed on a magnetic separation block and 100 μl of the supernatant was transferred to a transparent 96-well F-bottom plate. The OD at 450 nm was then read on a PHERAstar FS plate reader (BMG Labtech).

Experiment [2] deals with T2, GPR84 (Homo sapiens, UniProt Q9NQS5). Description: Competition binding kinetics of [3H]140 (on and off rates of unlabeled ligands). Further details: expressed in transfected cells; host or cells: membranes. The settings on record: for Kd: read-out: Koff/Kon. How it is done:
The kinetic binding parameters of unlabeled ligands were determined through assessment of the binding kinetics of [^3H]140.[21] […] At the indicated time points, membrane protein was added, and tubes were gently agitated. Three different concentrations of competitor were assessed to ensure that the rate parameters calculated were independent of ligand concentration.

In a further experiment the target is T3, GPR84 Y332F (Homo sapiens, UniProt Q9NQS5, Y332F).
T3 construct: FLAG (N); Gαi2-Cys352Ile (fusion partner) (C); expressed in transfected cells
Put plainly: [35S]GTPγS binding assay. The settings on record: for Emax: read-out: Emax ± SEM. The experiment is classed as biochemical. How it is done: (§1) Membranes were generated from Flp-In™ T-REx™ 293 cells following 100 ng/ml doxycycline treatment to induce receptor expression. Cells were washed with ice-cold phosphate-buffered saline (PBS), removed from dishes by scraping and centrifuged at 1,800 x g for 5 min at 4 °C. Pellets were resuspended in TE buffer (10mM Tris-HCl, 0.1 mM EDTA; pH 7.4) containing a protease inhibitor mixture and homogenized with a 5 ml hand-held homogenizer. Samples were centrifuged at 450 x g for 5 min at 4 °C and the supernatant was further centrifuged at 90,000 x g for 45 min at 4 °C. The resulting pellet was resuspended in TE buffer and protein content was assessed using a BCA protein assay kit.
(§2) Prepared membrane protein (3 μg per well) was incubated in assay buffer (20 mM HEPES, 5 mM MgCl2, 160 mM NaCl, 0.05 % fatty-acid-free bovine serum albumin; pH 7.4) containing the indicated ligand concentrations. The reaction was initiated by addition of [^35S]GTPγS (100 nCi per reaction) with 1 μM GDP, and incubated at 30 °C for 60 min. The reaction was terminated by rapid vacuum filtration through GF/C glassfibre filter-bottom 96-well microplates using a UniFilter FilterMate Harvester (PerkinElmer). Unbound radioligand was removed from filters by three washes with ice-cold PBS. Ultima Gold™ XR was added to dried filters, and [^35S]GTPγS binding quantified by liquid scintillation spectroscopy.

Experiment [3] deals with T4, GPR84 F187A (GPR84-Gi2α fusion protein) (Homo sapiens, UniProt Q9NQS5, F187A).
T4 construct: FLAG (N); Gαi2-Cys352Ile (fusion partner) (C); expressed in transfected cells
Put plainly: [35S]GTPγS binding assay. The experiment is classed as biochemical. How it is done:
as §1, §2

The target of experiment [4] is T2, GPR84. Put plainly: CHO-K1-based PathHunter β-arrestin-2 recruitment assay. Type of experiment: cell-based. The arrangement: host or cells: CHO-K1. The settings on record: for Emax: read-out: β-arrestin-2 %Emax ± SEM. How it is done: Cells were stimulated with test ligands for 90 min. Compounds were prepared at 5× concentration in DPBS containing 0.1% BSA and 0.125% Tween-80 to minimise aggregation. β-arrestin recruitment was quantified using the PathHunter® β-Arrestin Assay (DiscoverX 93-0001) following the manufacturer’s instructions. Luminescence was recorded after 18 h using a PHERAstar® FS plate reader.

Experiment [5] has as its target T1, wild type GPR84. Description: pThr263/pThr264 immunoblot of immunoprecipitated GPR84-eYFP. The experiment is classed as cell-based. The settings on record: 1 μM. How it is done:
eYFP-linked receptor constructs were immunoprecipitated from 200 μl cell lysates using GFP-Trap® agarose beads (Proteintech) according to manufacturer’s instructions. Immunocomplexes were washed three times in washing buffer, resuspended in 100 μl 2 × SDS-PAGE sample buffer and incubated at 60 °C for 10 min. Following centrifugation at 2500g for 5 min, 20 μl of immunoprecipitated proteins was resolved by SDS-PAGE on 4% to 12% BisTris gels. After separation, the proteins were transferred electrophoretically onto nitrocellulose membrane, which was then blocked using 5% bovine serum albumin (BSA) in Tris-buffered saline (TBS, 50 mM Tris-Cl, 150 mM NaCl, pH 7.6) for 1 h at room temperature on an orbital shaker. The membrane was then incubated with appropriate primary antibody in 5% BSA in TBS supplemented with 0.1% Tween (TBS-T) overnight at 4 °C. Anti-pThr^263/pThr^264 antiserum was diluted 1:2000 and anti-GFP was diluted 1:10,000. Subsequently, the membrane was washed (3 × 10 min with TBS-T) and incubated for 2 h with anti-rabbit secondary antibody diluted 1:10,000 in 5% BSA in TBS-T. After washing (3 × 10 min with TBS-T), proteins were detected using an Odyssey imaging system (Licor) according to the manufacturer’s instructions.

The mark [6] stands for this setting: F187A, read-out: pEC50 ± SEM (converted).

T3 sequence (Q9NQS5 whole entry Y332F, the tested form may be a part): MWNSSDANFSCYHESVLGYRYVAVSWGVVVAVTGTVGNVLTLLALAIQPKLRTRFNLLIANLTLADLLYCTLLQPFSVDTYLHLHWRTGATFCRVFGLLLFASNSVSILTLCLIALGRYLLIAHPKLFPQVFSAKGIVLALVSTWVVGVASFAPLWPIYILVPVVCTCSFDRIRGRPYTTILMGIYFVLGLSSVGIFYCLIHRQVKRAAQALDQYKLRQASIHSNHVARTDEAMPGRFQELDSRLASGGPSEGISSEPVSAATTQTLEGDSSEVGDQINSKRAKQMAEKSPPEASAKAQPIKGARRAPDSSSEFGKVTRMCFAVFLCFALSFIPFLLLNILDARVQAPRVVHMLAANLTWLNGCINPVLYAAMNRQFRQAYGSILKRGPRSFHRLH
T1 sequence (Q9NQS5 whole entry): as the sequence (Q9NQS5 whole entry Y332F, the tested form may be a part) above, with F332Y counted along it
T2 sequence (Q9NQS5 whole entry): as the sequence (Q9NQS5 whole entry Y332F, the tested form may be a part) above, with F332Y counted along it
T4 sequence (Q9NQS5 whole entry F187A, the tested form may be a part): as the sequence (Q9NQS5 whole entry Y332F, the tested form may be a part) above, with F187A, F332Y counted along it

In the case of `Cc1cc(CCCc2cc(O)c[n+]([O-])c2)ccc1Cl` [OX04954], the EC50 is 7.59 nM on wild type GPR84 [1]; 4.17 nM at GPR84 Y332F ([35S]GTPγS, Y332F); 0.107 nM in experiment [3] (setting [6]); 93.3 nM on GPR84 [4] (wild type GPR84, CHO-K1 PathHunter, read-out: β-arrestin-2 pEC50 ± SEM (converted)). The koff on GPR84 [2] (Fig. 1g, read-out: Koff (converted)) is 0.000429 s⁻¹. The Kd at GPR84 [2] (Fig. 1g) was determined as 1.83 ± 0.31 nM. The kon at GPR84 [2] (Fig. 1g, read-out: Kon (converted)) was 254000 M⁻¹ s⁻¹. The Emax was determined as 151 ± 10% on GPR84 Y332F ([35S]GTPγS, Y332F) and 71 ± 1.3% at GPR84 [4]. For the same compound, the “change in efficacy in β-arrestin-2 recruitment” value at GPR84 [4] (compared to OX04929 (so in the source)) was “no significant change”. Further, on wild type GPR84 [5], the “phosphorylation of Thr263 and Thr264 (immunoblot)” value is “promoted phosphorylation”.
As to `[O-][n+]1cc(O)cc(CCc2ccc(Cl)c(C(F)(F)F)c2)c1` [OX04529], the EC50 on wild type GPR84 [1] was 12.3 nM; at GPR84 Y332F ([35S]GTPγS, Y332F) it was 2.57 nM; in experiment [3] (setting [6]), 0.102 nM; in experiment [3] (Phe187Ala, read-out: EC50), about 0.1 nM. For the same compound, the “potency and efficacy in promoting phosphorylation of Thr263/Thr264” value on wild type GPR84 [1] (magnetic bead capture assay) is “weak efficacy”. Besides, the koff on GPR84 [2] is 0.000649 s⁻¹. For the same compound, the kon at GPR84 [2] was 443000 M⁻¹ s⁻¹. Besides, the Kd at GPR84 [2] (Fig. 1g) turned out to be 1.54 ± 0.2 nM. The Emax at GPR84 Y332F was 134 ± 12%; on GPR84 [4], 10 ± 1.5%. Further, the “fold greater potency than at wild type” value in experiment [3] (Phe187Ala) is recorded as “more than 10 fold”. For the same compound, the “phosphorylation of Thr263 and Thr264 (immunoblot)” value on wild type GPR84 [5] is “ineffective”.
